According to patent US9499495B2, “Quinazolines and azaquinazolines as dual inhibitors of RAS/RAF/MEK/ERK and PI3K/AKT/PTEN/mTOR pathways” (Asana Biosciences, LLC, priority 2013, dated 2016):

Assays:
mTOR kinase = target: T1, mTOR kinase (Homo sapiens, UniProt P42345); assay: mTOR kinase TR-FRET assay; type: biochemical
T1 construct: purchased Millipore, US
How it was run: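 TR-FRET with ULight-p70 S6K (Thr 389) peptide (50 nM) and 20 μM ATP in 50 mM HEPES pH 7.5, 1 mM EGTA, 3 mM MnCl2; compound pre-incubated with enzyme before substrate addition, reaction at rt, EDTA-stopped. Eu anti-phospho antibody read 665/615 nm; IC50 from sigmoidal dose-response fit.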

A375 cells = assay: XTT assay for cell viability, A375 cells; type: cell-based; settings: Homo sapiens, A-375, 72 h
Description: Cell lines (A375 ATCC No. CRL-1619, A2058 ATCC No. CRL-11147 and RKO ATCC No. CRL-2577, American Type Culture Collection (ATCC), Manassas Va.) once attaining ˜80% confluency were trypsinized, centrifuged and resuspended in fresh media. Cells (1000-2000/per well) were seeded in 96-well plate and incubated over-night at 37° C. in a 5% CO2 incubator. Compound dilutions were prepared in 100% DMSO followed by dilutions in the respective media. The cells were treated with NCEs for 72 h at 37° C. in 5% CO2 incubator. After 72 h, freshly prepared XTT (1 mg/ml)/PMS (25 μM) solution was added, incubated for 2 to 3 h at 37° C. and the absorbance was measured at 450 nm using an ELISA plate reader. Keeping DMSO control as 100%, the effect of the compound to inhibit the cell proliferation was calculated and the GI50 values were determined using sigmoidal dose response curve fit in GraphPad Prism® v5 software.

B-RAFV600E = target: T2, B-RAFV600E (Homo sapiens, UniProt P15056, V600E); assay: B-RAFV600E radiometric assay; type: biochemical; settings: read-out: Kinase assay B-Raf
T2 construct: purchased Millipore, USA 14-557
T2 sequence (P15056 416-766 V600E limits assumed): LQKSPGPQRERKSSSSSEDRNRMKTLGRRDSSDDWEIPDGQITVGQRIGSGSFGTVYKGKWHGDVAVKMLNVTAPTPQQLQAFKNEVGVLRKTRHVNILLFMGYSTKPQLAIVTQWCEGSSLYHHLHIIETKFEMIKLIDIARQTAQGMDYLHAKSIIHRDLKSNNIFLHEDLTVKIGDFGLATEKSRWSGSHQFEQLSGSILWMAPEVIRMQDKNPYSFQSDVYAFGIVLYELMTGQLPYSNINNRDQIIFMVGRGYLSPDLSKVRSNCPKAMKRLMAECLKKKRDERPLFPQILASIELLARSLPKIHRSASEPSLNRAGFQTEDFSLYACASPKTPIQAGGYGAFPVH
How it was run: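 B-RAFV600E was preincubated 45 min at rt with compound in 1% DMSO. MEK-K97M (0.5 μg), 5 μM final cold ATP and [γ-32P]ATP were then added for 2 h at rt. Phosphorylated MEK was captured on P81 paper and scintillation-counted; IC50 came from a sigmoidal dose-response fit.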

pERK in A375 cells = assay: In Cell Western (ICW) assay, pERK in A375 cells; type: cell-based; settings: Homo sapiens, A-375, 3 h treatment
Description: Cell lines A375, A2058 and RKO obtained from the ATCC as provided above, were grown, and after attaining ˜80% confluency were trypsinized, centrifuged and resuspended in fresh media. The cells were seeded at the specified density (20,000 to 50,000) in a 96-well format black-well clear bottom plate (Corning) and incubated overnight at 37° C. in a 5% CO2 incubator. The next day, compound dilutions of test compounds were prepared in 100% DMSO followed by dilutions in respective media. Treatment of test compounds was performed for 3 h at 37° C. in 5% CO2 incubator. Following 3 h drug treatment, the conditional media was discarded and the cells were washed once with cPBS (PBS containing 0.1% magnesium chloride hexahydrate and 0.1% anhydrous calcium chloride) and fixed with 4% paraformaldehyde in cPBS for 1 h at rt. After fixing, the cells were given three washes using cPBST (cPBS containing 0.1% Triton™ X-100 reagent) and then blocked using blocking solution (5% skimmed milk powder or 5% BSA prepared in cPBST) for 2 h at rt with shaking at 300 rpm. The cells were again washed thrice with cPBST and incubated with primary antibody phospho-p44/42 MAPK(Erk1/2)(Thr202/204) antibody (Cell Signaling, Catalog # 9101L), phospho S6 ribosomal protein (Cell Signaling, Catalog #4858L), phospho AKT (Thr 308) (Cell Signaling, Catalog #9275) or phospho AKT (Ser 473) (Cell Signaling, Catalog #4060L) in specified dilutions (1:500-1:2500), prepared in respective blocking solutions, in a racker overnight at 4° C. The next day, the cells were washed with 1× Delfia® wash buffer (4×1 wash) and incubated with secondary antibody (Delfia®-Eu-N1 labeled anti-rabbit antibody; PerkinElmer, Catalog #AD0105; dilutions: 1:2000 to 1:6000 in Delfia® assay buffer (PerkinElmer, Catalog #1244-111)) for 2 h at rt in the dark at 300 rpm. The cells were then given four washes with 1× Delfia® wash buffer and incubated with Wallac Delfia® Enhancement solution (100 μL; PerkinElmer, Catalog #1244-105) for 20 min at rt in the dark at 300 rpm. The fluorescence emission was then read at 615 nm with an excitation wavelength of 340 nm using a Victor V5 Fluorometer (Perkin Elmer, US). The cells were then washed once with 1×cPBS and incubated with 100 μL of 0.5 mg/mL of Hoechst 33258 dye prepared in cPBS and read at 460 nm with 355 nm excitation, thereby evaluating the correction factor.
The % inhibition for the test compounds of formula (I) (new chemical entities (NCEs)) was calculated keeping DMSO control as 0% and the IC50 values were determined using sigmoidal dose response curve fit in GraphPad Prism® v5 software.

T1 sequence (P42345 1362-2549 limits assumed): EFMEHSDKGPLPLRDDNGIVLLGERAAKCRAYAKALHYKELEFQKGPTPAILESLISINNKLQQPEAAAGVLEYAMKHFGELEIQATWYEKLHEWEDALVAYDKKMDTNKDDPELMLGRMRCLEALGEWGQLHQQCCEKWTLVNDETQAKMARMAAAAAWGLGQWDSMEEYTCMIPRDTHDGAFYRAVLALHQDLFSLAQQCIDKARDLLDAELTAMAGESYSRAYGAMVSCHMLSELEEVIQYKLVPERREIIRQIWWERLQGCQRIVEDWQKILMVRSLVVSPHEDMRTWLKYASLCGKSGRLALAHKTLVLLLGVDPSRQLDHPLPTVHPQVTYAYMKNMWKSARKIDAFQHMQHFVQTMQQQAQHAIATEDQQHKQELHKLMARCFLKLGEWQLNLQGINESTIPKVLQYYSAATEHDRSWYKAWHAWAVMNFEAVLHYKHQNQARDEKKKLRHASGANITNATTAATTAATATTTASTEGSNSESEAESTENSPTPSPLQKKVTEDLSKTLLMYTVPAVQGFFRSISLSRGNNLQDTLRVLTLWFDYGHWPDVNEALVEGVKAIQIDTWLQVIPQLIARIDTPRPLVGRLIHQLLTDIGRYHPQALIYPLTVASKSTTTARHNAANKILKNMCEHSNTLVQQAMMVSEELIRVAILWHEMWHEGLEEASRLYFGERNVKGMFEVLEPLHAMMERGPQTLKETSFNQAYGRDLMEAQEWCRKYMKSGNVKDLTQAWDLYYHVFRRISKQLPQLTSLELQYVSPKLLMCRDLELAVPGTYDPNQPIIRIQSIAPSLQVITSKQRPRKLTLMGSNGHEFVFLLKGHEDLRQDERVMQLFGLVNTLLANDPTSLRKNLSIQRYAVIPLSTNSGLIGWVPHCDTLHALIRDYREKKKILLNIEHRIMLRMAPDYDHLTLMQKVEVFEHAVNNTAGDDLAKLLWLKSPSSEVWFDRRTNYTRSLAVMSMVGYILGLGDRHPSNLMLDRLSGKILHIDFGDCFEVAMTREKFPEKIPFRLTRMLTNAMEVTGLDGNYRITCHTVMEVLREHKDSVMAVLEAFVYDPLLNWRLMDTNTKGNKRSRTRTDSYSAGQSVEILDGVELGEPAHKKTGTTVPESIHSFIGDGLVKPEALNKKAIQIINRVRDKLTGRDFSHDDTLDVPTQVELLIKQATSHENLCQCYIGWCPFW

| IC50 (mTOR kinase) | IC50 (A375 cells) | IC50 (B-RAFV600E) | IC50 (pERK in A375 cells) | Compound |
| --- | --- | --- | --- | --- |
| 100 to 1000 nM | 100 to 1000 nM | 1 to 100 nM | 1 to 100 nM | COc1cc(-c2cccc(NS(=O)(=O)c3cc(F)ccc3F)c2F)cc2c(N3CCOCC3)nc(-c3ccc(N)nc3)nc12 [Example 28, N-(3-(2-(6-aminopyridin-3-yl)-8-methoxy-4-morpholinoquinazolin-6-yl)-2-fluorophenyl)-2,5-difluorobenzenesulfonamide] |
| 100 to 1000 nM | 100 to 1000 nM | 1 to 100 nM | 1 to 100 nM | COc1cc(-c2cccc(NS(=O)(=O)c3ccccc3F)c2F)cc2c(N3CCOCC3)nc(-c3ccc(N)nc3)nc12 [Example 29, N-(3-(2-(6-aminopyridin-3-yl)-8-methoxy-4-morpholinoquinazolin-6-yl)-2-fluorophenyl)-2-fluorobenzenesulfonamide] |
| 100 to 1000 nM | 100 to 1000 nM | 100 to 1000 nM | 100 to 1000 nM | COc1cc(-c2cccc(NS(=O)(=O)C(C)C)c2F)cc2c(N3CCOCC3)nc(-c3ccc(N)nc3)nc12 [Example 33, N-(3-(2-(6-aminopyridin-3-yl)-8-methoxy-4-morpholinoquinazolin-6-yl)-2-fluorophenyl)propane-2-sulfonamide] |
| 100 to 1000 nM | 100 to 1000 nM | 1 to 100 nM | 1 to 100 nM | COc1cc(-c2cccc(NS(=O)(=O)c3cccs3)c2F)cc2c(N3CCOCC3)nc(-c3ccc(N)nc3)nc12 [Example 38, N-(3-(2-(6-aminopyridin-3-yl)-8-methoxy-4-morpholinoquinazolin-6-yl)-2-fluorophenyl)thiophene-2-sulfonamide] |
| 1 to 100 nM | 100 to 1000 nM | 1 to 100 nM | 1 to 100 nM | COc1cc(-c2cccc(NS(=O)(=O)CCCF)c2F)cc2c(N3CCOC[C@@H]3C)nc(-c3ccc(N)nc3)nc12 [Example 41, (S)-N-(3-(2-(6-aminopyridin-3-yl)-8-methoxy-4-(3-methylmorpholino)quinazolin-6-yl)-2-fluorophenyl)-3-fluoropropane-1-sulfonamide] |
| 100 to 1000 nM | 100 to 1000 nM | 100 to 1000 nM | 100 to 1000 nM | COc1cc(-c2cccc(NS(=O)(=O)CCCF)c2F)cc2c(N3CCOC[C@@H]3C)nc(-c3cnc(N)nc3)nc12 [Example 45, (S)-N-(3-(2-(2-aminopyrimidin-5-yl)-8-methoxy-4-(3-methylmorpholino)quinazolin-6-yl)-2-fluorophenyl)-3-fluoropropane-1-sulfonamide] |
| 100 to 1000 nM | 100 to 1000 nM | 1 to 100 nM | 1 to 100 nM | Nc1ccc(-c2nc(N3CCOCC3)c3cc(-c4cccc(NS(=O)(=O)CCCF)c4F)ccc3n2)cn1 [Example 46, N-(3-(2-(6-aminopyridin-3-yl)-4-morpholinoquinazolin-6-yl)-2-fluorophenyl)-3-fluoropropane-1-sulfonamide] |
| 100 to 1000 nM | 100 to 1000 nM | 1 to 100 nM | 100 to 1000 nM | COc1cc(-c2cccc(NS(=O)(=O)c3ccccc3F)c2F)cc2c(N3CCOCC3)nc(-c3cnc(N)nc3)nc12 [Example 47, N-(3-(2-(2-aminopyrimidin-5-yl)-8-methoxy-4-morpholinoquinazolin-6-yl)-2-fluorophenyl)-2-fluorobenzenesulfonamide] |
| 100 to 1000 nM | 100 to 1000 nM | 1 to 100 nM | 1 to 100 nM | CCOc1cc(-c2cccc(NS(=O)(=O)CCCF)c2F)cc2c(N3CCOCC3)nc(-c3cnc(N)nc3)nc12 [Example 54, N-(3-(2-(2-aminopyrimidin-5-yl)-8-ethoxy-4-morpholinoquinazolin-6-yl)-2-fluorophenyl)-3-fluoropropane-1-sulfonamide] |
| 1 to 100 nM | 1000 to 10000 nM | 1 to 100 nM | 1000 to 10000 nM | NC(=O)COc1cc(-c2cccc(NS(=O)(=O)CCCF)c2F)cc2c(N3CCOCC3)nc(-c3ccc(N)nc3)nc12 [Example 60, 2-((2-(6-aminopyridin-3-yl)-6-(2-fluoro-3-(3-fluoropropylsulfonamido)phenyl)-4-morpholino-quinazolin-8-yl)oxy)acetamide] |
| 100 to 1000 nM | 1 to 100 nM | 1 to 100 nM | 100 to 1000 nM | Nc1ccc(-c2nc(N3CCOCC3)c3cc(-c4cccc(NS(=O)(=O)CCCF)c4F)cc(N4CCCC4)c3n2)cn1 [Example 70, N-(3-(2-(6-aminopyridin-3-yl)-4-morpholino-8-(pyrrolidin-1-yl)quinazolin-6-yl)-2-fluorophenyl)-3-fluoropropane-1-sulfonamide] |
| 1 to 100 nM | 100 to 1000 nM | 100 to 1000 nM | 1 to 100 nM | Nc1ncc(-c2nc(N3CCOCC3)c3cc(-c4cccc(NS(=O)(=O)CCCF)c4F)cc(N4CCCC4)c3n2)cn1 [Example 71, N-(3-(2-(2-aminopyrimidin-5-yl)-4-morphollno-8-(pyrrolidin-1-yl)quinazolin-6-yl)-2-fluorophenyl)-3-fluoropropane-1-sulfonamide] |
| 1 to 100 nM | 100 to 1000 nM | 1 to 100 nM | 1 to 100 nM | CCCS(=O)(=O)Nc1ccc(F)c(-c2cc(OC)c3nc(-c4ccc(N)nc4)nc(N4CCOCC4)c3c2)c1F [Example 75, N-(3-(2-(6-aminopyridin-3-yl)-8-methoxy-4-morpholinoquinazolin-6-yl)-2,4-difluorophenyl)propane-1-sulfonamide] |
| 100 to 1000 nM | 100 to 1000 nM | 1 to 100 nM | 100 to 1000 nM | COc1cc(-c2c(F)ccc(NS(=O)(=O)c3c(F)cccc3F)c2F)cc2c(N3CCOCC3)nc(-c3cnc(N)nc3)nc12 [Example 76, N-(3-(2-(2-aminopyrimidin-5-yl)-8-methoxy-4-morpholinoquinazolin-6-yl)-2,4-difluorophenyl)-2,6-difluorobenzenesulfonamide] |
| 100 to 1000 nM | 100 to 1000 nM | 1 to 100 nM | 100 to 1000 nM | COc1cc(-c2c(F)ccc(NS(=O)(=O)c3c(F)cccc3F)c2F)cc2c(N3CCOCC3)nc(-c3ccc(N)nc3)nc12 [Example 77, N-(3-(2-(6-aminopyridin-3-yl)-8-methoxy-4-morpholinoquinazolin-6-yl)-2,4-difluorophenyl)-2,6-difluorobenzenesulfonamide] |
| 100 to 1000 nM | 100 to 1000 nM | 1 to 100 nM | 1 to 100 nM | COc1cc(-c2c(F)ccc(NS(=O)(=O)c3cc(F)ccc3F)c2F)cc2c(N3CCOCC3)nc(-c3ccc(N)nc3)nc12 [Example 78, N-(3-(2-(6-aminopyridin-3-yl)-8-methoxy-4-morpholinoquinazolin-6-yl)-2,4-difluorophenyl)-2,5-difluorobenzenesulfonamide] |
| 100 to 1000 nM | 100 to 1000 nM | 1 to 100 nM | 100 to 1000 nM | CCCS(=O)(=O)Nc1ccc(Cl)c(-c2cc(OC)c3nc(-c4ccc(N)nc4)nc(N4CCOCC4)c3c2)c1F [Example 80, N-(3-(2-(6-aminopyridin-3-yl)-8-methoxy-4-morpholinoquinazolin-6-yl)-4-chloro-2-fluorophenyl)propane-1-sulfonamide] |
